Results from PubChem BioAssay AID2696 (Johns Hopkins Ion Channel Center, 2010).

biological target: Short transient receptor potential channel 6 (Mus musculus) (UniProt Q61143); assay: TRPC6 inhibitor potency, dose response, cell-based, mouse TRPC6, HEK293, membrane potential (AID 2696); settings: TRPC6-expressing HEK293 cells, membrane potential dye fluorescence, acetylcholine-stimulated
Sequence (Q61143 whole entry, looked up): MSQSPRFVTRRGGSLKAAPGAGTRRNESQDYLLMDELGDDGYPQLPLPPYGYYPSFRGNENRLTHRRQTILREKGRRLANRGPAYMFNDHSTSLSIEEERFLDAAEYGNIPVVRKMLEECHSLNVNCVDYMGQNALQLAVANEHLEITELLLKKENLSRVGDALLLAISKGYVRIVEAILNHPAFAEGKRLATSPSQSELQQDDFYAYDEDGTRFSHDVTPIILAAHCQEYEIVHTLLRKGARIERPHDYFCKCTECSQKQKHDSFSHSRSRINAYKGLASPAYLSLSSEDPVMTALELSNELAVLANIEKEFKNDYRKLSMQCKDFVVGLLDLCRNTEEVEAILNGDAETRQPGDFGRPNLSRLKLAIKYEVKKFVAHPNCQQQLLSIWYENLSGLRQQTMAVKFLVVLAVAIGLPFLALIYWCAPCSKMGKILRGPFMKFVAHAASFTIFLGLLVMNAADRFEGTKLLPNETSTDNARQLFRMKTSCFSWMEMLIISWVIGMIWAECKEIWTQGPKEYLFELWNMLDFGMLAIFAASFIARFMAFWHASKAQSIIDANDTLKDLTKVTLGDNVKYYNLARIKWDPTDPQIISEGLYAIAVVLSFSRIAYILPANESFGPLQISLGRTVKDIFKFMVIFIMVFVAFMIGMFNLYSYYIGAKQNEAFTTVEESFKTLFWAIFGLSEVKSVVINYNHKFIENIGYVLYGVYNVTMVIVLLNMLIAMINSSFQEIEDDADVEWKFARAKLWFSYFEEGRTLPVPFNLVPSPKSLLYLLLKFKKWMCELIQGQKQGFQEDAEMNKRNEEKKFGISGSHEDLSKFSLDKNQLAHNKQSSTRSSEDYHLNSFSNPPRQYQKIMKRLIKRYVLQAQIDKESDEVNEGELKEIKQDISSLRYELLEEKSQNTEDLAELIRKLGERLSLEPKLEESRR

Structure (SMILES) | IC50
COc1ccc(N2C(=O)CSC23C(=O)N2CCCc4cccc3c42)cc1 (stereo unspecified) | 1.12 µM
COc1ccc(Cl)cc1Nc1nc(N)c2ccccc2n1 | 31.6 µM
CC(C)CC1CCCCC1OC(=O)C[N+]1(C)CCCCC1 (stereo unspecified) | 15.8 µM
Cc1cccc[n+]1CC(=O)N1c2ccccc2Sc2ccccc21 | 4.47 µM
Cc1ccc(C)c(Nc2nc(N)c3ccccc3n2)c1 | 19.9 µM
CCN(CC)CCOC(=O)C1(c2ccccc2)CCCC1 | 15.8 µM
CN(C)CCN(C(=O)c1ccc2c(c1)OCCO2)c1nc2c(Cl)cccc2s1 | 50.1 µM
O=C(c1ccc(C(=O)N2CCCc3ccccc32)s1)N1CCCc2ccccc21 | 44.7 µM
CCCC[n+]1ccc(-c2nc3ccc([N+](=O)[O-])cc3[nH]2)cc1 | 56.2 µM
COc1ccc(CCC(C)NC2C3CC4CC(C3)CC2C4)cc1 (stereo unspecified) | 44.7 µM
O=[N+]([O-])c1cccc(OCCCN2CCC(Cc3ccccc3)CC2)c1 | 50.1 µM
CCOC(=O)c1nc2cc3n(c(C)c-2c1C)C(C)C(C)=C3C (stereo unspecified) | 44.7 µM
CCOC(=O)c1cnc2c(C)cccc2c1NCCCN1CCOCC1 | 44.7 µM
Cc1ccc2c(c1)NC(=O)C(CC(=O)Nc1ccc(CN3CCC(C)CC3)cc1)O2 (stereo unspecified) | 3.98 µM
CN(C)CCOC(=O)C(c1ccccc1)C1(O)CCCC1 (stereo unspecified) | 1.78 µM
CN(C)c1ccc(C2N(C)C(=O)c3ccccc3N2C)cc1 (stereo unspecified) | 79.4 µM
N#Cc1c(N2CCNCC2)nc(-c2ccco2)c2c1CCCC2 | 44.7 µM
O=C(c1ccccc1)N1CCN(C2C3CC4CC(C3)CC2C4)CC1 (stereo unspecified) | 44.7 µM
C[N+]1(C)[C@@H]2CC[C@H]1CC(OC(=O)[C@@H](CO)c1ccccc1)C2 (stereo partly specified) | 0.02 µM
CN(C)CCN(C(=O)c1cccs1)c1nc2cc3c(cc2s1)OCCO3 | 39.8 µM
COc1ccc(N2CCN(S(=O)(=O)CCNC(=O)COc3ccccc3C)CC2)cc1 | 39.8 µM
C[N+](C)(C)C/C=C1/COCO1 | 11.2 µM
COc1ccc(Nc2ccnc3ccccc23)cc1 | 70.8 µM
CCN(CC)CCNc1nc2cc(OC)c(OC)cc2c2nc(-c3ccccc3)nn12 | 79.4 µM
NCCCn1c(C(=O)c2ccc(Cl)cc2)c2ccc(C(F)(F)F)cc2[n+]1[O-] | 44.7 µM
Cc1cc(-n2cccn2)ccc1CN1CCN(C2CCCC2)C(CCO)C1 (stereo unspecified) | 0.5 µM
